# Experiments:
# Format in all cases: functional
# 786-0 = assay: Growth inhibition of human 786-0 cells assessed as cell growth at 1 uM after 48 hrs by SRB assay; settings: 786-0, 48 h, read-out: Activity
# EKVX = assay: Growth inhibition of human EKVX cells assessed as cell growth at 10 uM after 48 hrs by SRB assay; settings: read-out: Activity
# HOP-62 [1] = assay: Growth inhibition of human HOP62 cells assessed as cell growth at 10 uM after 48 hrs by SRB assay; settings: HOP-62, 48 h, read-out: Activity
# NCI-H460 [2] = assay: Growth inhibition of human NCI-H460 cells after 48 hrs by […] growth inhibition assay; settings: NCI-H460, 48 h
# NCI-H522 [3] = assay: Growth inhibition of human NCI-H522 cells after 48 hrs by […] growth inhibition assay; settings: NCI-H522, 48 h
# SNB-19 = assay: Growth inhibition of human SNB19 cells after 48 hrs by […] growth inhibition assay; settings: SNB-19, 48 h
# U-251 = assay: Growth inhibition of human U251 cells after 48 hrs by […] growth inhibition assay; settings: U-251, 48 h
# OVCAR-3 = assay: Growth inhibition of human OVCAR3 cells after 48 hrs by […] growth inhibition assay; settings: OVCAR-3, 48 h
# OVCAR-8 [4] = assay: Growth inhibition of human OVCAR8 cells after 48 hrs by […] growth inhibition assay; settings: OVCAR-8, 48 h
# SN12C = assay: Growth inhibition of human SN12C cells after 48 hrs by […] growth inhibition assay
# T47D = assay: Growth inhibition of human T47D cells after 48 hrs by […] growth inhibition assay
# CCRF-CEM = assay: Growth inhibition of human CCRF-CEM cells assessed as cell growth at 0.1 uM after 48 hrs by SRB assay; settings: read-out: Activity
# NCI-H522 [5] = assay: Growth inhibition of human NCI-H522 cells assessed as cell growth at 0.1 uM after 48 hrs by SRB assay; settings: NCI-H522, 48 h, read-out: Activity
# Malme-3M [6] = assay: Growth inhibition of human MALME-3M cells assessed as cell growth at 0.1 uM after 48 hrs by SRB assay; settings: read-out: Activity
# M14 = assay: Growth inhibition of human M14 cells assessed as cell growth at 0.1 uM after 48 hrs by SRB assay; settings: M14, 48 h, read-out: Activity
# MDA-MB-435 = assay: Growth inhibition of human MDA-MB-435 cells assessed as cell growth at 0.1 uM after 48 hrs by SRB assay; settings: MDA-MB-435, 48 h, read-out: Activity
# Malme-3M [7] = assay: Growth inhibition of human MALME-3M cells assessed as cell growth at 10 uM after 48 hrs by SRB assay; settings: read-out: Activity
# UACC-257 [8] = assay: Growth inhibition of human UACC257 cells assessed as cell growth at 10 uM after 48 hrs by SRB assay; settings: UACC-257, 48 h, read-out: Activity
# OVCAR-8 [9] = assay: Growth inhibition of human OVCAR8 cells assessed as cell growth at 10 uM after 48 hrs by SRB assay; settings: OVCAR-8, 48 h, read-out: Activity
# HOP-92 = assay: Growth inhibition of human HOP92 cells assessed as cell growth at 100 uM after 48 hrs by SRB assay; settings: HOP-92, 48 h, read-out: Activity
# NCI-H460 [10] = assay: Growth inhibition of human NCI-H460 cells assessed as cell growth at 100 uM after 48 hrs by SRB assay; settings: NCI-H460, 48 h, read-out: Activity
# COLO 205 = assay: Growth inhibition of human COLO205 cells assessed as cell growth at 100 uM after 48 hrs by SRB assay; settings: COLO 205, 48 h, read-out: Activity
# UACC-257 [11] = assay: Growth inhibition of human UACC257 cells assessed as cell growth at 100 uM after 48 hrs by SRB assay; settings: UACC-257, 48 h, read-out: Activity
# SK-OV-3 = assay: Growth inhibition of human SKOV3 cells assessed as cell growth at 100 uM after 48 hrs by SRB assay; settings: SK-OV-3, 48 h, read-out: Activity
# SK-MEL-5 = assay: Growth inhibition of human SK-MEL-5 cells assessed as cell growth at 1 mM after 48 hrs by SRB assay; settings: SK-MEL-5, 48 h, read-out: Activity
# TK-10 = assay: Growth inhibition of human TK10 cells assessed as cell growth at 1 mM after 48 hrs by SRB assay; settings: TK-10, 48 h, read-out: Activity
# HOP-62 [12] = assay: Growth inhibition of human HOP62 cells assessed as cell growth at 1 uM after 48 hrs by SRB assay; settings: HOP-62, 48 h, read-out: Activity
# NCI-H522 [13] = assay: Growth inhibition of human NCI-H522 cells assessed as cell growth at 1 uM after 48 hrs by SRB assay; settings: NCI-H522, 48 h, read-out: Activity
# KM12 = assay: Growth inhibition of human KM12 cells assessed as cell growth at 1 uM after 48 hrs by SRB assay; settings: KM12, 48 h, read-out: Activity
# SF-295 = assay: Growth inhibition of human SF295 cells assessed as cell growth at 1 uM after 48 hrs by SRB assay; settings: SF-295, 48 h, read-out: Activity
# Malme-3M [14] = assay: Growth inhibition of human MALME-3M cells assessed as cell growth at 1 uM after 48 hrs by SRB assay; settings: read-out: Activity
# [15] = read-out: LC50 (the source's name)
# [16] = read-out: pLC50 (the source's name) (converted)
smiles,measurement,setting,value
CNC(=O)NC[C@H]1O[C@@H](n2cnc3c(NC(=O)Nc4ccccc4)ncnc32)[C@H](O[Si](C)(C)C(C)(C)C)[C@@H]1O[Si](C)(C)C(C)(C)C,growth at 1 µM,786-0,113%
same,growth at 10 µM,EKVX,104%
same,growth at 10 µM,HOP-62 [1],105%
same,GI50,NCI-H460 [2]; read-out: GI50,1.72 µM
same,CC50,NCI-H460 [2]; [15],7.11 µM
same,TGI,NCI-H460 [2]; read-out: TGI,3.49 µM
same,GI50,NCI-H460 [2]; read-out: pGI50 (converted),1.7 µM
same,CC50,NCI-H460 [2]; [16],7.08 µM
same,TGI,NCI-H460 [2]; read-out: pTGI (converted),3.47 µM
same,GI50,NCI-H522 [3]; read-out: GI50,2.39 µM
same,CC50,NCI-H522 [3]; [15],> 100 µM
same,TGI,NCI-H522 [3]; read-out: TGI,7.14 µM
same,GI50,NCI-H522 [3]; read-out: pGI50 (converted),2.4 µM
same,CC50,NCI-H522 [3]; [16],> 100 µM
same,TGI,NCI-H522 [3]; read-out: pTGI (converted),7.08 µM
same,GI50,SNB-19; read-out: GI50,4.57 µM
same,CC50,SNB-19; [15],> 100 µM
same,TGI,SNB-19; read-out: TGI,> 100 µM
same,GI50,SNB-19; read-out: pGI50 (converted),4.57 µM
same,CC50,SNB-19; [16],> 100 µM
same,TGI,SNB-19; read-out: pTGI,> 100 µM
same,GI50,U-251; read-out: GI50,2.96 µM
same,CC50,U-251; [15],> 100 µM
same,TGI,U-251; read-out: TGI,10.8 µM
same,GI50,U-251; read-out: pGI50 (converted),2.95 µM
same,CC50,U-251; [16],> 100 µM
same,TGI,U-251; read-out: pTGI (converted),10.7 µM
same,GI50,OVCAR-3; read-out: GI50,2.6 µM
same,CC50,OVCAR-3; [15],98.2 µM
same,TGI,OVCAR-3; read-out: TGI,5.54 µM
same,GI50,OVCAR-3; read-out: pGI50 (converted),2.63 µM
same,CC50,OVCAR-3; [16],97.7 µM
same,TGI,OVCAR-3; read-out: pTGI (converted),5.5 µM
same,GI50,OVCAR-8 [4]; read-out: GI50,4.01 µM
same,CC50,OVCAR-8 [4]; [15],> 100 µM
same,TGI,OVCAR-8 [4]; read-out: TGI,40.1 µM
same,GI50,OVCAR-8 [4]; read-out: pGI50 (converted),3.98 µM
same,CC50,OVCAR-8 [4]; [16],> 100 µM
same,TGI,OVCAR-8 [4]; read-out: pTGI (converted),39.8 µM
same,GI50,SN12C; read-out: GI50,1.81 µM
same,CC50,SN12C; [15],6.29 µM
same,TGI,SN12C; read-out: TGI,3.38 µM
same,GI50,SN12C; read-out: pGI50 (converted),1.82 µM
same,CC50,SN12C; [16],6.31 µM
same,TGI,SN12C; read-out: pTGI (converted),3.39 µM
same,GI50,T47D; read-out: GI50,2.87 µM
same,CC50,T47D; [15],> 100 µM
same,TGI,T47D; read-out: TGI,10.3 µM
same,GI50,T47D; read-out: pGI50 (converted),2.88 µM
same,CC50,T47D; [16],> 100 µM
same,TGI,T47D; read-out: pTGI (converted),10.2 µM
same,growth at 0.1 µM,CCRF-CEM,104%
same,growth at 0.1 µM,NCI-H522 [5],92%
same,growth at 0.1 µM,Malme-3M [6],105%
same,growth at 0.1 µM,M14,101%
same,growth at 0.1 µM,MDA-MB-435,102%
same,growth at 10 µM,Malme-3M [7],96%
same,growth at 10 µM,UACC-257 [8],104%
same,growth at 10 µM,OVCAR-8 [9],106%
same,growth at 100 µM,HOP-92,-28%
same,growth at 100 µM,NCI-H460 [10],-74%
same,growth at 100 µM,COLO 205,-95%
same,growth at 100 µM,UACC-257 [11],11%
same,growth at 100 µM,SK-OV-3,39%
same,growth at 1000 µM,SK-MEL-5,-99%
same,growth at 1000 µM,TK-10,-2%
same,growth at 1 µM,HOP-62 [12],108%
same,growth at 1 µM,NCI-H522 [13],90%
same,growth at 1 µM,KM12,111%
same,growth at 1 µM,SF-295,107%
same,growth at 1 µM,Malme-3M [14],98%

# — ChEMBL document CHEMBL1681651, “A broad spectrum anticancer nucleoside with selective toxicity against human colon cells in vitro” (2011)
